The target of experiment [1] is T1, Coagulation factor X (Bos taurus, UniProt P00743). Briefly: In vitro concentration of compound required to inhibit 50% of Factor Xa.
In experiment [2] the target is T2, Plasma kallikrein (Homo sapiens, UniProt P03952). Briefly: In vitro concentration of compound required to inhibit 50% of Kallikrein.
The target of experiment [3] is T3, Plasminogen (Homo sapiens, UniProt P00747). The experiment in a line: In vitro concentration of compound required to inhibit 50% of Plasmin.
The next experiment concerns the target T4, Serine protease 1 (Bos taurus, UniProt P00760).
T4 sequence (P00760 whole entry): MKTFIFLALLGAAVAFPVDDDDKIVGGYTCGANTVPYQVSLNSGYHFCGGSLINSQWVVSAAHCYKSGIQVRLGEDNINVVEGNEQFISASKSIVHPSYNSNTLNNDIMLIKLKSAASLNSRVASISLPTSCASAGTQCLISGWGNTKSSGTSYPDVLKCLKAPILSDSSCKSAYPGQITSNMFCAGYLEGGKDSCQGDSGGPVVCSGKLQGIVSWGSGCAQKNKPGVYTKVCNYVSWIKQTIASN
Briefly: In vitro concentration of compound required to inhibit 50% of trypsin.

Experiment [4] in a line: In vitro concentration of compound required to inhibit 50% of nt-PA. Further details: species or system Homo sapiens.
The next experiment addresses Prothrombin (Bos taurus, UniProt P00735).
In experiment [5] the target is T2, Plasma kallikrein. Briefly: In vitro concentration of compound required to inhibit 50% of kallikrein.
Experiment [6] has as its target T3, Plasminogen. The experiment in a line: In vitro concentration of compound required to inhibit 50% of plasmin.
Experiment [7] deals with T1, Coagulation factor X. Briefly: In vitro concentration of compound required to inhibit 50% of factor Xa.

Non-standard residues stand in square brackets, D forms with d. Residues, ends and D or L forms follow the SMILES beside them. dNMePhg = CN[C@@H](C(=O)O)c1ccccc1; NMePhg = CN[C@H](C(=O)O)c1ccccc1 Some results are limits rather than exact numbers.

T3 sequence (P00747 97-580 limits assumed): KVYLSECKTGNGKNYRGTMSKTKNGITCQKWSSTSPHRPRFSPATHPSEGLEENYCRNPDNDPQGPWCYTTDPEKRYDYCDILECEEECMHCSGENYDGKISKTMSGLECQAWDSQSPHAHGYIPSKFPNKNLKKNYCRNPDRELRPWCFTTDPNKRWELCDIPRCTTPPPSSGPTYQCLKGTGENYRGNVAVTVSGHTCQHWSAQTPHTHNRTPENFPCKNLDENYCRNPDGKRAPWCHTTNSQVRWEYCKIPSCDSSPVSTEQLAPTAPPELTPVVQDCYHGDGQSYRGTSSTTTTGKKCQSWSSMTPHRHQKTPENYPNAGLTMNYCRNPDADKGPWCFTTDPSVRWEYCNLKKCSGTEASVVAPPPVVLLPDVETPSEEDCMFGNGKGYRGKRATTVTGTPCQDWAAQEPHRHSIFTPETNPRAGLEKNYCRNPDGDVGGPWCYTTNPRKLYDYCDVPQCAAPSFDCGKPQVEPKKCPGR
T3 sequence (P00747 581-810 limits assumed): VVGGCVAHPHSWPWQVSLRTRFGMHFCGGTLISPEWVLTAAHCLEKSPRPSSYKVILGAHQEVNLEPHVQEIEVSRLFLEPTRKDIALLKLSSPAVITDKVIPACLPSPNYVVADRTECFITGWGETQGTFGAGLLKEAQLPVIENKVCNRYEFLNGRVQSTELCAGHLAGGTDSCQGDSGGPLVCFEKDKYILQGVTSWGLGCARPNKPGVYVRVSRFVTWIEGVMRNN
T1 sequence (P00743 41-180 limits assumed): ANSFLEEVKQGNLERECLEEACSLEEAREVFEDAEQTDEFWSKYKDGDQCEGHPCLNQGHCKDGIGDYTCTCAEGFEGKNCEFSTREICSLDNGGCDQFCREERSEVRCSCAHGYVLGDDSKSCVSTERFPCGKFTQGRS
T1 sequence (P00743 234-492 limits assumed): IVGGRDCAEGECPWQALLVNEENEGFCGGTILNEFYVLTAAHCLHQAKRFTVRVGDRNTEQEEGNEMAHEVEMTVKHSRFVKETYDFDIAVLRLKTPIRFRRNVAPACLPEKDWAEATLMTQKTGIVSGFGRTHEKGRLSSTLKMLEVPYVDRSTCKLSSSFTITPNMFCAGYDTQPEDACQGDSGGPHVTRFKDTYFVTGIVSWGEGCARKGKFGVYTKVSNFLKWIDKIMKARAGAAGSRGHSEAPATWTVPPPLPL
T2 sequence (P03952 20-390 limits assumed): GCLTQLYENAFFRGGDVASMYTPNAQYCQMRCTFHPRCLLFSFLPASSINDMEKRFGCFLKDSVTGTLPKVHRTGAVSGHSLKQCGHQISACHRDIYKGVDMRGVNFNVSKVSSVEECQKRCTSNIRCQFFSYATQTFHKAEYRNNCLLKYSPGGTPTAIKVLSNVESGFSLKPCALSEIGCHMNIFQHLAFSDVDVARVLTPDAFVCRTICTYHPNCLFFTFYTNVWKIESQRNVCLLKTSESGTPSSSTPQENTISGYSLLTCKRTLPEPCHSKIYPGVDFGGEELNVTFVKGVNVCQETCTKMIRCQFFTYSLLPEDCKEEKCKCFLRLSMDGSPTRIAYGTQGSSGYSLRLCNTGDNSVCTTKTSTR
T2 sequence (P03952 391-638 limits assumed): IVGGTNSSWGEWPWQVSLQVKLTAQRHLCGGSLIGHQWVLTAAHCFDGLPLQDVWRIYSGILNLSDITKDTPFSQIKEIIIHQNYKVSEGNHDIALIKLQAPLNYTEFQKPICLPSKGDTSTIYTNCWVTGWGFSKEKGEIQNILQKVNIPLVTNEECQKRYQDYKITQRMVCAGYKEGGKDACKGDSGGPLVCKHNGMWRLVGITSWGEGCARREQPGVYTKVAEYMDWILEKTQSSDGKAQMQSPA
Description for Prothrombin: In vitro concentration of compound required to inhibit 50% of 6 nM thrombin

One may read the IC50 as the concentration at which inhibition is half-maximal. In the case of `COC(=O)c1oc2c(sc3ccccc32)c1OC(=O)C(C)C`, the IC50 against Coagulation factor X [1] amounted to 0.1 µM; against Plasma kallikrein [2] it was 7.2 µM; against Plasminogen [3], 240 µM; against Serine protease 1, 29 µM; in [4], 160 µM.
Take `COC(=O)c1oc2c(sc3ccccc32)c1O`: the IC50 against Prothrombin is greater than 10 µM.
`COC(=O)c1oc2c(sc3ccccc32)c1OC`: on Prothrombin, the IC50 is greater than 10 µM.
On to `CN[C@@H](C(=O)N1CCC[C@H]1C(=O)N[C@H](C=O)CCCNC(=N)N)c1ccccc1` (H-[dNMePhg]-Pro-Arg-aldehyde), for which the IC50 against Plasma kallikrein [5] is 12 µM; against Plasminogen [6], 0.5 µM; on Serine protease 1, 0.02 µM; in [4] it was 43 µM; on Coagulation factor X [7], 2.2 µM.
At Prothrombin, `CN[C@H](C(=O)N1CCC[C@H]1C(=O)N[C@@H](CCCNC(=N)N)C(=O)O)c1ccccc1` (H-[NMePhg]-Pro-Arg-OH) returned an IC50 of 0.02 µM.
Still for that read-out and setting: the same measure for `COC(=O)c1oc2c(sc3ccccc32)c1OC(=O)N(C)C`: greater than 10 µM.

The values above are taken from ChEMBL document CHEMBL1126451, “Characterization of LY806303 as a potent and selective inhibitor of thrombin” (Bioorg Med Chem Lett, 1992).
